According to patent US20220125959A1, “PROSTATE-SPECIFIC MEMBRANE ANTIGEN (PSMA) INHIBITORS AS DIAGNOSTIC AND RADIONUCLIDE THERAPEUTIC AGENTS” (FIVE ELEVEN PHARMA INC., priority 2019, published 2022):
Each block holds one molecule with its values, some of them ahead of it.

Columns and labels:
[1] = tested on: PC3-PIP (PSMA positive) and PC-3 tumors (PSMA negative); experiment: Biodistribution of [68Ga]4 in tumor bearing nude mice; format: in vivo, CD-1 male nude mice
Experimental: (§1) ^68Ga labeling: To 15 nmole ligand 4 (1 mg/mL DMSO) were added 20 μL of 2.0 N NaOAc, 500 μL ^68Ga-solution (2.25 mCi). The reaction was heated in a heating block at 90° C. for 10 minutes in a 3 mL closed vial. After cooling, the sample was analyzed by HPLC (HPLC: Eclise XDB C18 150×4.6 mm, gradient, 2 mL/min; A: 0.1% TFA in water; B: 0.1% TFA in ACN: 0-2 min 100% A; 2-4 min: from 0% to 100% B; 4-9 min: 100% B; 9-10 min: from 100% to 0% B). Radiochemical purity of [^68Ga]4 was >99% RCP (FIG. 1) and injected doses were stable at 2 hr after formulation.
For iv injection 150 μL of labeled solution was diluted with saline to 3 mL. Mice were injected with 150 μL of formulated dose. Injected radioactivity was 19-28 μCi and PSMA ligand amount was constant at 0.2 nmole/mouse.
Biodistribution of [^68Ga]4, [^177Lu]4 and [^177Lu]7 was determined in nude mice bearing PIP PC3 (PSMA positive) and PC3 (PSMA negative) tumors on the left and right shoulder, respectively, over a period of 192 h (Table 3a, 3b and 3c). […] The uptake in PC3 tumors (PSMA negative) of both ligands, [^177Lu]4 and [^177Lu]7, was clearly much lower than those of PC-3 PIP tumors (PSMA positive).

[2] = Stability of injected doses after formulation; format: physicochemical; conditions: at 2 hr after formulation
Experimental: as §1
^177Lu labeling: To 10 μg ligand (1 mg/mL DMSO) were added 15 μL of 2.0 N NaOAc, 400 μL 0.05 N HCl, and 20 μL ^177Lu-solution (780 μCi (Capintec setting 450 (reading×10)). The reaction was heated with a heating block at 95° C. for 1 hour in a 3 mL closed vial. After cooling, the sample was analyzed by HPLC (HPLC: Eclipse XDB-C18 150×4.6 mm, gradient, 1 mL/min; A: 0.1% TFA in water; B: 0.1% TFA in ACN: 0-4 min A/B 85/15%; 4-11 min: from 85/15 to 30/70%; 11-14 min: from 30/70% to 85/15%). Radiochemical purity of [^177Lu]4 (FIG. 2) and [^177Lu]7 was >98% and injected doses were stable at 48 hr after formulation.
For iv injection 150 μL of labeled solution was diluted with saline to 3.75mL. Mice were injected with 150 μL of formulated dose. Injected radioactivity was 100 μCi and PSMA ligand amount was constant at 0.72 nmole/mouse.

[3] = tested on: PSMA-positive cell line, PIP PC3; experiment: In vitro cell uptake, PIP PC3 cells; format: cell-based
Experimental: To determine the cell uptakes of the [^177Lu] labelled ligands, 5×10^5 cells/well were grown in 12-well plates in 1 mL of medium for 48 h. The cells were washed twice with PBS, and 900 μL fresh media were added. […] All samples were prepared in triplicate. Following the incubation at 37° C., cells were washed twice to remove unbound activity and afterwards lysed in 1 mL of 0.5 M NaOH. Activity was measured in a gamma counter. Aliquots of the solution added to the cells were also measured for the calculation of the cellular uptake as % ID.

[4] = tested on: PSMA-negative cell line, PC3; experiment: In vitro cell uptake, PC3 cells; format: cell-based; conditions: PC3 (do not express PSMA), 60 min
Experimental: To determine the cell uptakes of the [^177Lu] labelled ligands, 5×10^5 cells/well were grown in 12-well plates in 1 mL of medium for 48 h. The cells were washed twice with PBS, and 900 μL fresh media were added. Radiolabelled ligand was added and the PSMA-inhibitor (2-PMPA) was applied in a final concentration of 10 μM to determine unspecific binding. All samples were prepared in triplicate. Following the incubation at 37° C., cells were washed twice to remove unbound activity and afterwards lysed in 1 mL of 0.5 M NaOH. Activity was measured in a gamma counter. Aliquots of the solution added to the cells were also measured for the calculation of the cellular uptake as % ID.

- Biodistribution: Blood ([1]; 30 min): 1.22 ± 0.06 % dose/g
- Biodistribution: Bone ([1]; 30 min): 0.35 ± 0.01 % dose/g
- Biodistribution: Brain ([1]; 30 min): 0.04 ± 0.01 % dose/g
- Biodistribution: Heart ([1]; 30 min): 0.75 ± 0.12 % dose/g
- Biodistribution: Intestine ([1]; 30 min): 0.48 ± 0.12 % dose/g
- Biodistribution: Kidney ([1]; 30 min): 137.36 ± 12.92 % dose/g
- Biodistribution: Liver ([1]; 30 min): 3.23 ± 0.31 % dose/g
- Biodistribution: Lung ([1]; 30 min): 2.46 ± 0.37 % dose/g
- Biodistribution: Muscle ([1]; 30 min): 0.51 ± 0.07 % dose/g
- Biodistribution: PC3-PSMA- tumor ([1]; 30 min): 1.59 ± 0.27 % dose/g
- Biodistribution: PIP-PSMA+ tumor ([1]; 30 min): 12.88 ± 2.08 % dose/g
- Biodistribution: Pancreas ([1]; 30 min): 1.57 ± 0.93 % dose/g
- Biodistribution: Skin ([1]; 30 min): 1.71 ± 0.22 % dose/g
- Biodistribution: Spleen ([1]; 30 min): 7.19 ± 1.55 % dose/g
- Biodistribution: Stomach ([1]; 30 min): 0.44 ± 0.28 % dose/g
- Biodistribution: Blood ([1]; 1 hr): 0.65 ± 0.08 % dose/g
- Biodistribution: Bone ([1]; 1 hr): 0.17 ± 0.01 % dose/g
- Biodistribution: Brain ([1]; 1 hr): 0.03 ± 0.00 % dose/g
- Biodistribution: Heart ([1]; 1 hr): 0.43 ± 0.06 % dose/g
- Biodistribution: Intestine ([1]; 1 hr): 0.44 ± 0.13 % dose/g
- Biodistribution: Kidney ([1]; 1 hr): 166.31 ± 18.62 % dose/g
- Biodistribution: Liver ([1]; 1 hr): 2.87 ± 0.30 % dose/g
- Biodistribution: Lung ([1]; 1 hr): 1.52 ± 0.28 % dose/g
- Biodistribution: Muscle ([1]; 1 hr): 0.21 ± 0.05 % dose/g
- Biodistribution: PC3-PSMA- tumor ([1]; 1 hr): 1.14 ± 0.25 % dose/g
- Biodistribution: PIP-PSMA+ tumor ([1]; 1 hr): 13.86 ± 1.54 % dose/g
- Biodistribution: Pancreas ([1]; 1 hr): 0.75 ± 0.13 % dose/g
- Biodistribution: Skin ([1]; 1 hr): 0.64 ± 0.26 % dose/g
- Biodistribution: Spleen ([1]; 1 hr): 4.60 ± 1.80 % dose/g
- Biodistribution: Stomach ([1]; 1 hr): 0.34 ± 0.19 % dose/g
- Biodistribution: Blood ([1]; 2 hr): 0.53 ± 0.11 % dose/g
- Biodistribution: Bone ([1]; 2 hr): 0.19 ± 0.03 % dose/g
- Biodistribution: Brain ([1]; 2 hr): 0.03 ± 0.00 % dose/g
- Biodistribution: Heart ([1]; 2 hr): 0.25 ± 0.04 % dose/g
- Biodistribution: Intestine ([1]; 2 hr): 0.38 ± 0.04 % dose/g
- Biodistribution: Kidney ([1]; 2 hr): 116.41 ± 51.94 % dose/g
- Biodistribution: Liver ([1]; 2 hr): 2.54 ± 0.16 % dose/g
- Biodistribution: Lung ([1]; 2 hr): 1.05 ± 0.08 % dose/g
- Biodistribution: Muscle ([1]; 2 hr): 0.14 ± 0.07 % dose/g
- Biodistribution: PC3-PSMA- tumor ([1]; 2 hr): 0.74 ± 0.23 % dose/g
- Biodistribution: PIP-PSMA+ tumor ([1]; 2 hr): 16.74 ± 2.75 % dose/g
- Biodistribution: Pancreas ([1]; 2 hr): 0.50 ± 0.15 % dose/g
- Biodistribution: Skin ([1]; 2 hr): 0.62 ± 0.31 % dose/g
- Biodistribution: Spleen ([1]; 2 hr): 3.41 ± 2.46 % dose/g
- Biodistribution: Stomach ([1]; 2 hr): 0.20 ± 0.09 % dose/g
- Tumor uptake ([1]; suitable for PET imaging): excellent tumor uptake
- Stability of injected doses [2]: stable
Compound: O=C(O)CCC(C(=O)O)N1CCN(CC(=O)O)CCN(C(CCC(=O)NCC(=O)N[C@@H](Cc2ccc(OCC(=O)N[C@@H](Cc3ccccc3)C(=O)NCCCC[C@H](NC(=O)N[C@@H](CCC(=O)O)C(=O)O)C(=O)O)cc2)C(=O)O)C(=O)O)CCN(CC(=O)O)CC1.[68Ga] (stereo partly drawn) [[^68Ga]4]

Compound: O=C(O)CC[C@H](NC(=O)N[C@@H](CCCCNC(=O)[C@H](Cc1ccc2ccccc2c1)NC(=O)[C@H]1CC[C@H](CNC(=O)CN2CCN(CC(=O)O)CCN(CC(=O)O)CCN(CC(=O)O)CC2)CC1)C(=O)O)C(=O)O.[177Lu] [[^177Lu]PSMA-617, reference compound]
- In vitro cell uptake ([3]; PIP PC3, 5 min): 3.5 % ID per 5 × 10^5 cells
- In vitro cell uptake ([3]; PIP PC3, 15 min): 5.8 % ID per 5 × 10^5 cells
- In vitro cell uptake ([3]; PIP PC3, 30 min): 6.8 % ID per 5 × 10^5 cells
- In vitro cell uptake ([3]; PIP PC3, 60 min): 8.2 % ID per 5 × 10^5 cells
- In vitro cell uptake ([3]; PIP PC3, 60 min, with PSMA inhibitor (2-PMPA, 2 uM)): 1.0 % ID per 5 × 10^5 cells
- In vitro cell uptake ([3]; PIP PC3, 120 min): 9.6 % ID per 5 × 10^5 cells
- In vitro cell uptake [4]: 0.3 % ID per 5 × 10^5 cells
